According to patent US8188138B2, “Sulphonylpyrrole hydrochloride salts as histone deacetylases inhibitors” (4SC AG, priority 2005, dated 2012):
Read-outs that look alike come from different tables or passages of the source.

What was measured:
Type in all cases: cell-based
[1] = test system: HeLa cervical carcinoma cells; assay: Cellular cytotoxicity assay (Alamar Blue), HeLa; settings: Homo sapiens, 72 h, range stated for the listed group
Procedure: (§1) The anti-proliferative activity of the histone deacetylase inhibitory compounds as described herein, was evaluated using the following cell lines: HeLa and HeLa—KB (cervical carcinoma), H460 (non small cell lung cancer), A549 (non-small cell lung cancer), MCF7 (breast carcinoma), MCF10A (normal, non tumorigenic breast epithelial), MDA-MB468 (breast carcinoma), MDA-MB435 (breast carcinoma), MDA-MB231 (breast carcinoma), SKBR-3 (breast carcinoma), SKOV-3 (ovarial carcinoma), A-2780 (ovarial carcinoma), RKO (colon carcinoma), HCT-15 (colon carcinoma), HCT-116 (colon carcinoma), PC3 (prostate carcinoma), BPH1 (benign prostate hyperplasia), AsPC1 (pancreatic carcinoma), Cal27 (tongue carcinoma), A-431 (vulva carcinoma), HeclA (endometrial carcinoma), Saos-2 (osteosarcoma), U87MG (glioblastoma), WM266-4 (melanoma), K562 (chronic myeloid carcinoma), EOL1 (acute hypereosinophilic myeloid leukemia), CCRF-CEM and CCRF-CEM VCR1000 (acute lymphoblastic leukemia sensitive and resistant towards Vincristine). For quantification of cellular proliferation/living cells the Alamar Blue (Resazurin) cell viability assay was applied (O'Brien et al. Eur J Biochem 267, 5421-5426, 2000). In this assay Resazurin is reduced to the fluorescent resorufin by cellular dehydrogenase activity, correlating with viable, proliferating cells. The examples were dissolved as 20 mM solutions in dimethylsulfoxide (DMSO) and subsequently diluted in semi-logarithmic steps. Cell lines were seeded at respective density into 96 well flat bottom plates in a volume of 200 μl per well. 24 hours after seeding 1 μl each of the compound dilutions were added into each well of the 96 well plate. Each compound dilution was tested as quadruplicates. Wells containing untreated control cells were filled with 200 μl DMEM medium containing 0.5% v:v DMSO. The cells were then incubated with the substances for 72 hours at 37° C. in a humidified atmosphere containing 5% carbon dioxide. To determine the viability of the cells, 20 μl of an Resazurin solution (Sigma; 90 mg/l) were added. After 4 hours incubation at 37° C. the fluorescence was measured at an extinction of 544 nm and an emission of 590 nm. For the calculation of the cell viability the emission value from untreated cells was set as 100% viability and the emission rates of treated cells were set in relation to the values of untreated cells. Viabilities were expressed as % values. The corresponding IC50 values of the compounds for cytotoxic activity are determined from the concentration-effect curves by means of non-linear regression.

[2] = test system: histone H3 hyperacetylation in HeLa cervical carcinoma cells; assay: Cellular histone H3 hyperacetylation assay; settings: Homo sapiens, 24 h, range stated for the listed group, read-out: Induction of histone H3 hyperacetylation EC50
Source text: To assess the cellular efficacy of a histone deacetylase inhibitor in vitro, an assay was set up in black clear-bottom 96-well plates and optimized for use on the Cellomics “ArrayScan II” platform for a quantitative calculation of histone acetylation. The protocol uses a polyclonal rabbit antibody, specifically binding to acetylated lysine 23 or, alternatively, acetylated lysine 9+14 of human histone H3 on fixed cells with an Alexa Fluor 488 labeled goat anti rabbit-IgG used for counterstaining (modified from Braunger et al. AACR annual conference 2003, Abstract 4556). 5×10^3 HeLa cervical carcinoma cells/well (ATCC CCL-2) in 200 μl Dulbecco's modified Eagle's medium (DMEM) containing 10% fetal calf serum are seeded at day 1 in Packard view plates and incubated for 24 h under standard cell culture conditions. On day 2, 1 μl test compound (200× final concentration) is added and incubation continued for further 24 h. On day 3, the culture medium is discarded and attached cells fixed for 15 min at room temperature by addition of 100 μl fixation buffer (3.7% v:v formaldehyde in phosphate buffered saline/PBS). After discarding the fixation buffer and one wash with blocking solution (1% BSA, 0.3% Tween 20 in PBS), cells are permeabilized at room temperature by addition of 100 μl/well permeabilization buffer (30.8 mM NaCl, 0.54 mM Na2HPO4, 0.31 mM KH2PO4, 0.1% v:v […]) for 15 min at room temperature. After discarding the permeabilization buffer and washing twice with 100 μl/well blocking solution at room temperature, the 1st antibody (anti-K23 histone H3 antibody, Cell Signaling No. 9674 or, alternatively, anti-K9+14 histone H3 antibody, Calbiochem No. 382158) in blocking solution (50 μl/well) is added. After incubation for 1 h at room temperature, the wells are washed twice at room temperature with 100 μl/well blocking solution before addition of the 2nd antibody (goat-anti-rabbit Alexa Fluor 488; MoBiTec No. A-11008) in blocking solution (50 μl/well). After further incubation for 1 h at room temperature, wells are washed twice with 100 μl/well blocking solution at room temperature. Finally, 100 μl/well PBS are added and image analysis performed on the Cellomics “ArrayScan II” platform. For EC50 determination, the percentage of positive cells showing nuclear fluorescence is determined and EC50 calculation done from concentration-effect curves by means of non-linear regression. For calibration, a positive (reference HDAC inhibitors like SAHA or NVP LBH-589) and a negative control were included.

[3] = test system: broad selection of non-malignant cell lines and fully transformed malignant cancer cell lines; assay: Anti-proliferative activity across cell line panel (Alamar Blue); settings: mean over non-malignant and malignant cell lines
Procedure: as §1

[4] = test system: RKO colon carcinoma cells; assay: Cell-cycle dependent cytotoxicity, RKO exop21 cell system; settings: Homo sapiens, 72 h, range stated for the listed group
Procedure: For determination of cell-cycle dependent cytotoxicity, the RKO exop21 cell system was applied (Schmidt et al. Oncogene 19: 2423-2429, 2000). Briefly, RKO cells with/without p21^waf1 expression (2×10^4 cells/well induced, 6×10^3 cells/well not induced) were treated with the examples for 72 h and metabolic activity quantified as described before. The expression of p21^waf1 was induced by treatment with Pronasterone A, causing a complete proliferation arrest of RKO cells in the G1 and G2 phases of the cell division cycle.

[5] = test system: MDA-MB468 breast cancer cells; assay: Breast cancer cell differentiation assay (Nile Red, flow cytometry); settings: 24 h; for Neutral & phospholipids (%): differentiated cells; for Phospholipids (%): undifferentiated cells
Procedure: For quantification of MDA-MB468 breast cancer cell differentiation (described by Munster et al. Canc. Res. 61(23), pp 8492, 2001), 1× E6 cells were seeded in 10 cm cell culture dishes and, after cultivation for 24 h, treated with HDI for further 24 h. Finally, cells were collected by trypsination, washed twice with PBS and resuspended in 1 ml of staining solution ([…] Nile Red in PBS). After incubation for at least 5 min at room temperature, cells were analysed by flow cytometry on a FACS Calibur device (Ex 488 nm, Em. at 530 nm/FL-1 and >630 nm/FL-3). From respective histograms the percentage of cells with fluorescence at 650 nm (phospholipids) and 530 nm+650 nm (phospho- and neutral lipids) were calculated. For microscopic analysis, MDA-MB468 cells were cultivated on two-well chamber slides, treated with test compound for 24 h, fixed with 1.5 vol % glutaraldehyde/PBS and finally treated with staining solution. After washing with PBS, cells were analysed by fluorescence microscopy.
The percentage of differentiated cells with neutral and phospholipids as well as undifferentiated cells with phospholipids only are summarized in the table 5.

A549 cell line = assay: Combination experiment with Trail in A549; settings: example at about its IC50 combined with Trail
Procedure: A549 non-small cell lung cancer, MDA-MB468 breast cancer and […] colorectal cancer cell lines were pretreated with the examples for 4 h before adding the chemotherapeutic agents or Trail and further incubation for 72 h total. The IC50 values of these combinations were determined from concentration-effect curves and compared to IC50 values of cell treated with the anti-cancer agent only.

[6] = arrested RKO cells, p21waf1 expressed, read-out: RKO arrested (p21^waf1 expressed) IC50
[7] = proliferating RKO cells, read-out: RKO proliferating IC50

Row | SMILES | EC50 [2] [µM] | IC50 [1] [nM] | IC50 [3] [nM] | IC50 [4, 6] [nM] | IC50 [4, 7] [nM] | Neutral & phospholipids (%) ([5]; 2 μM) | Phospholipids (%) ([5]; 2 μM) | Neutral & phospholipids (%) ([5]; 5 μM) | Phospholipids (%) ([5]; 5 μM) | Effect of combination with Trail (A549 cell line) | Neutral & phospholipids (%) ([5]; 0.8 μM) | Phospholipids (%) ([5]; 0.8 μM)
1 | CN(C)Cc1ccc(S(=O)(=O)n2ccc(/C=C/C(=O)NO)c2)cc1 [Compound 10, (E)-3-[1-(4-Dimethylaminomethyl-benzenesulfonyl)-1H-pyrrol-3-yl]-N-hydroxy-acrylamide] |  | 70 to 5000 | 4600 | 450 to 15000 | 150 to 5100 | 55.5 | 41.6 | 70.2 | 25.2 | synergism is highly likely |  | 
2 | O=C(/C=C/c1ccn(S(=O)(=O)c2ccc(-c3ccccn3)s2)c1)NO [Compound 24, (E)-N-Hydroxy-3-[1-(5-pyridin-2-yl-thiophene-2-sulfonyl)-1H-pyrrol-3-yl]-acrylamide] | 0.08 to 16 | 70 to 5000 | 570 | 450 to 15000 | 150 to 5100 |  |  |  |  | synergism is highly likely | 67.3 | 27.9

The next lines start with results.

Row | EC50 [2] [µM] | SMILES | IC50 [1] [nM] | IC50 [3] [nM] | IC50 [4, 6] [nM] | IC50 [4, 7] [nM] | Neutral & phospholipids (%) ([5]; 2 μM) | Phospholipids (%) ([5]; 2 μM) | Neutral & phospholipids (%) ([5]; 5 μM) | Phospholipids (%) ([5]; 5 μM) | Effect of combination with Trail (A549 cell line) | Neutral & phospholipids (%) ([5]; 0.8 μM) | Phospholipids (%) ([5]; 0.8 μM)
3 | 2.15 to 51.3 | O=C(C=Cc1ccn(S(=O)(=O)Cc2ccccc2)c1)NO [Compound 2, N-Hydroxy-3-(1-phenylmethanesulfonyl-1H-pyrrol-3-yl)-acrylamide] | 800 to 21600 |  |  |  |  |  |  |  |  |  | 
4 | 2.15 to 51.3 | CN(C)c1ccc(S(=O)(=O)n2ccc(/C=C/C(=O)NO)c2)cc1 [Compound 4, (E)-3-[1-(4-Dimethylamino-benzenesulfonyl)-1H-pyrrol-3-yl]-N-hydroxy-acrylamide] | 800 to 21600 |  |  |  |  |  |  |  |  |  | 
5 | 2.15 to 51.3 | Nc1ccccc1NC(=O)/C=C/c1ccn(S(=O)(=O)c2ccc(-c3ccccc3)cc2)c1 [Compound 7, (E)-N-(2-Amino-phenyl)-3-[1-(biphenyl-4-sulfonyl)-1H-pyrrol-3-yl]-acrylamide] | 800 to 21600 |  |  |  |  |  |  |  |  |  | 
